# Where “and” joins values, the source holds several entries; their conditions need not be identical. Equal entries are not always repeated. Non-standard residues stand in square brackets, D forms with d. Residues, ends and D or L forms follow the SMILES beside them. Dip = N[C@H](C(=O)O)C(c1ccccc1)c1ccccc1
# Legend:
# [1] = test system: E. faecium (ATCC 700221); test: microbe, parasite or virus in culture; type: cell-based, Enterococcus faecium; conditions: ATCC 700221, 24 h
# Method: (§1) The antibacterial activity of all ten synthesized linear and cyclic peptides was evaluated against MRSA (ATCC BAA-1556), S. aureus (ATCC 29213), E. faecium (ATCC 700221), S. pneumoniae (ATCC 51938), E. faecalis (ATCC 29212), B. subtilis (ATCC-6633), K. pneumoniae (ATCC BAA-1705), P. aeruginosa (ATCC 27883), and E. coli (ATCC 25922). Meropenem and daptomycin were used as positive controls for this study. Certain peptides are marked as “NT” (not tested) against specific bacterial strains based on initial screening data. […] The MIC was determined by micro-broth dilution protocol, where the minimal concentrations were determined to be in wells with no visible bacterial growth.
# (§2) All bacterial experiments were carried out in a laminar flow hood (Labconco, Kansas City, MO, USA). The bacterial strains were cultured following the guidelines set by the Clinical Laboratory Standards Institute (CLSI). Antibacterial assays were performed using a standard microtiter dilution method as described in previous studies. The minimum inhibitory concentration (MIC) refers to the lowest peptide concentration that inhibits bacterial growth in wells with no visible bacterial growth. MIC was determined by micro-broth dilution. Bacteria were cultured overnight in 6 mL of Luria Broth (LB). A stock solution of the peptide was prepared in water and DMSO, and a test compound solution with a concentration of 256 µg/mL was made in LB. Meropenem, with a solubility of 8 mg/mL, was prepared as a stock solution at 4 mg/500 µL. An aliquot of the overnight bacteria culture was diluted in normal saline (NS, 1 mL) until achieving a 0.5 McFarland turbidity (1.5 × 10^8 bacterial cell CFU/mL). A 0.5 McFarland compared solution (60 µL) was added to Mueller Hinton Broth (MH) 8940 µL to generate a 1/150 dilution. A 200 µL test compound solution was added to the first well of a 96-well plate, and the remaining wells (2–12) were filled with 100 µL of MH media using a multi-channel pipette from a sterile reservoir. A concentration of […] of the tested peptides was prepared from a stock solution of the samples for testing in Muller−Hinton broth MH media. Peptides stock solution was dissolved in 5% DMSO in water, and the final concentration of DMSO in the first well of assay plate was 2.5% DMSO/H2O and diluted across the assay plate.
# (§3) A 100 µL sample from well 1 was pipetted into well 2, and the solution was mixed thoroughly by pipetting up and down. Next, 100 µL was transferred from well 2 to well 3, followed by thorough mixing. This 2-fold serial dilution process continued through well 11, with no additions made to well 12. The final 100 µL from well 11 was discarded. After completing the serial dilution, each well (1–12) contained 100 µL of solution. The bacterial culture in MH media was vortexed and transferred to a sterile reservoir, from which 100 µL was added to each well using a 12-channel pipette. (Note: The dilutions were further diluted upon adding the bacterial solution; for example, the concentration in well 1 started at […] after the addition of the bacterial culture.) The plates were incubated overnight at 37 °C for 24 h. All experiments were performed in triplicate and repeated twice, with controls consisting of bacteria in MH media and positive controls of daptomycin or meropenem.
# [2] = test system: C. parapsilosis and A. fumigatus; type: cell-based; conditions: span over the two fungi
# Method: (§4) The antifungal activity of all ten synthesized linear and cyclic peptides was evaluated against C. albicans (ATCC 60193), C. parapsilosis (ATCC 22019), and A. fumigatus (AF-293). Fluconazole and amphotericin B were used as positive controls for this study. The MIC was determined at concentrations in wells with no visible fungal growth.
# A. fumigatus (Af-293) was cultured on Sabouraud dextrose agar (SDA) (Lot #3431660, Oxoid) for 48–72 h at 35 °C to obtain fresh and mature colonies which reached the proper sporulation then used to prepare the inoculum. The colonies were covered with Phosphate-Buffered Saline (PBS) containing 0.025% Tween-20, scraped from the plate, and carefully collected into a sterile tube. The suspension was centrifuged at 3000 RPM for 5 min after the separation between conidia and hyphae. […]
# Peptide concentrations of 50, 25, 12.5, 6.25, and 3.1 μg/mL were tested in triplicate. […] Fungal growth was visualized, and the minimum inhibitory concentration (MIC) was determined as the lowest peptide concentration, where no growth was observed. […]
# Peptide concentrations of 50, 25, 12.5, 6.25, and 3.1 μg/mL were tested in triplicate and repeated twice. […] Fungal and microbial growth were visually observed in the control wells, and the minimum inhibitory concentration (MIC) was determined as the lowest concentration at which no growth was detected in the wells. […]
# [3] = test system: E. faecalis (ATCC 29212); test: microbe, parasite or virus in culture; type: cell-based, Enterococcus faecalis; conditions: ATCC 29212, 24 h
# Method: as §1, §2, §3
# [4] = test system: K. pneumoniae (ATCC BAA-1705); test: microbe, parasite or virus in culture; type: cell-based, Klebsiella pneumoniae; conditions: ATCC BAA-1705, 24 h
# Method: as §1, §2, §3
# [5] = cited from earlier work
# Source text: We hypothesized that these peptides can be used as a broad-spectrum antibiotic and antifungal agents by interacting with bacterial and fungal membranes. The head-to-tail cyclization and incorporation of unnatural amino acids could provide improved stability against degradation in the biological environment. […] For example, we have previously shown the plasma stability of [DipR]5. Approximately 15% degradation of [DipR]5 was observed within the first hour, but the rate of de ...
# [6] = test system: C. albicans (ATCC 60193); test: microbe, parasite or virus in culture; type: cell-based, Candida albicans; conditions: ATCC 60193, 24 h
# Method: as §4
# In this study, C. albicans and C. parapsilosis were cultured on Yeast Peptone Dextrose (YPD) agar containing 1% w/v yeast extract, 2% w/v peptone, 2% w/v D-glucose, and 1.5% agar. A single colony from the agar was selected and cultured in Tryptone soy broth supplemented with 0.1% D-glucose, then incubated for 24 h at 37 °C. The cells were washed twice with PBS by centrifugation at 2000 RPM for 5 min. The pellet was resuspended in 5 mL of PBS, diluted in RPMI 1640 with L-glutamine, supplemented with 2% D-glucose, and the pH adjusted using HEPES buffer. The suspension was then incubated for 50 min at 35 °C to achieve a final cell concentration of 10^6 cells/mL.
# Peptide concentrations of 50, 25, 12.5, 6.25, and 3.1 μg/mL were tested in triplicate and repeated twice. Each well of a 96-well plate was inoculated with the prepared inoculum suspension, which was diluted with RPMI media to a final volume of 200 μL per well. The control well received the same inoculum without any compound. The plates were incubated for 24 h at 37 °C. Fungal and microbial growth were visually observed in the control wells, and the minimum inhibitory concentration (MIC) was determined as the lowest concentration at which no growth was detected in the wells. Amphotericin B was used as a standard antifungal drug.
compound,measurement,setting,value
N=C(N)NCCC[C@@H]1NC(=O)[C@H](C(c2ccccc2)c2ccccc2)NC(=O)[C@H](CCCNC(=N)N)NC(=O)[C@H](C(c2ccccc2)c2ccccc2)NC(=O)[C@H](CCCNC(=N)N)NC(=O)[C@H](C(c2ccccc2)c2ccccc2)NC(=O)[C@H](CCCNC(=N)N)NC(=O)[C@H](C(c2ccccc2)c2ccccc2)NC(=O)[C@H](CCCNC(=N)N)NC(=O)[C@H](C(c2ccccc2)c2ccccc2)NC1=O [[DipR]5] (cyclo([Dip]R[Dip]R[Dip]R[Dip]R[Dip]R)),MIC,[1],0.78 µM
same,MIC values against C. parapsilosis and A. fumigatus,[2],1.6–6.6 µM and 3.0–12.5 µg/mL
same,MIC,[3],0.78 µM
same,MIC,[4],25 µM
same,degradation in plasma,[5],Approximately 15%
same,MIC,[6],13.1 µM

# — publication PMC11763264, “Antibacterial and Antifungal Activities of Linear and Cyclic Peptides Containing Arginine, Tryptophan, and Diphenylalanine” (Antibiotics, 2025)
